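Cultured in 96-well plates, cells were exposed to test compound for 48 hours across five concentrations. Here, GI50 denotes the concentration required for 50% inhibition of growth. At the TGI there is no net growth.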 A value given as a limit tells only on which side of the number the result lay.

What all share (test): NCI tumour cell line growth inhibition, 48 h
Experiment [1] relates to ACHN renal.
Experiment [2] concerns HT29 colon.
The subject of experiment [3] is LOX IMVI melanoma.
Experiment [4] deals with MOLT-4 leukemia.
Experiment [5] concerns NCI/ADR-RES ovarian.
In experiment [6] the test system is PC-3 prostate.
The test system of experiment [7] is SNB-19 CNS.
The test system of experiment [8] is SNB-75 CNS.
The subject of experiment [9] is T-47D breast.
In experiment [10] the test system is UACC-257 melanoma.

`C=C(CN1CCc2ccccc2C1)c1ccc(C(=O)Nc2ccc(N)cc2)cc1`: the GI50 in experiment [1] is 30 µM; in [2], 19.6 µM; in experiment [3] it was 17.7 µM; in experiment [4], 1.93 µM; in [5] it was 19.1 µM; in experiment [6], 3.08 µM. Moreover, the GI50 was 28.3 µM in experiment [7], 9.87 µM in experiment [8], 11.1 µM in experiment [9] and 20.2 µM in experiment [10]. Also, the TGI in [1] is above 100 µM; in [2] it was 43.2 µM; in experiment [3], 55.7 µM; in experiment [4], 53 µM; in [5], above 100 µM; in experiment [6] it was 48 µM. Moreover, the TGI was above 100 µM in experiment [7], 53.6 µM in experiment [8], 41.7 µM in experiment [9] and 59.7 µM in [10].

Take `CC(C)(O)C1OCC(C2CCC3(C)C4=CCC5C(C)(C)C(O)CCC5(C)C4CCC23C)CC1O` (stereo not given): the TGI in experiment [1] is 28.6 µM; in experiment [2] it was 25.7 µM; in experiment [3], 42.7 µM; in [4], 41.9 µM; in [5] it was 27 µM; in experiment [6] it was 26.7 µM. The TGI amounted to 36.9 µM in [7], 34.6 µM in experiment [8], 26.6 µM in [9] and 39.3 µM in experiment [10].

Turning to `COc1ccc(-c2nc(-c3cn(C)c4ncccc34)cs2)cc1`, the GI50 in experiment [1] is 91.7 µM; in [2] it was 17.3 µM; in [3] it was 54.1 µM; in experiment [4] it was 18.9 µM; in experiment [5], 11.9 µM; in experiment [6], 18.3 µM. In addition, the GI50 in [7] was above 100 µM; in experiment [8], above 100 µM; in [9] it was 12.5 µM; in experiment [10], above 100 µM. Further, the TGI in [1], in experiment [2], in experiment [3], in [4], in experiment [5] and in [6] was above 100 µM throughout. Besides, the TGI in experiment [7], in experiment [8], in experiment [9] and in experiment [10] was above 100 µM each time.

In the case of `COc1ccc(-c2nc(-c3ccccc3)c(-c3ccccc3)n2C2CC2)cc1OC1CCCC1`, the GI50 was 58 µM in experiment [1]; 85.1 µM in [2]; 15.1 µM in [3]; 45.7 µM in [4]; 58.6 µM in experiment [5]; 22.6 µM in [6]. Also, the GI50 in [7] was above 165 µM; in experiment [8], 48.4 µM; in experiment [9], 51.5 µM; in experiment [10], above 165 µM. Besides, the TGI in [1], in experiment [2], in [3], in experiment [4], in experiment [5] and in [6] was above 165 µM in each case. The TGI in experiment [7], in [8], in experiment [9] and in experiment [10] was above 165 µM each time.

`CCN(CC)CCCCCCCNc1c2ccc(Cl)cc2nc2ccc(OC)cc12`: the GI50 in experiment [1] was 0.829 µM; in experiment [2], 0.203 µM; in experiment [3], 0.275 µM; in experiment [4], 0.372 µM; in [5] it was 1.03 µM; in experiment [6], 0.843 µM. The GI50 in [7] was 1.75 µM; in experiment [8], 1.29 µM; in experiment [9] it was 2.24 µM; in experiment [10], 1.27 µM. Further, the TGI was found to be 4.93 µM in experiment [1]; 0.604 µM in experiment [2]; 1.17 µM in experiment [3]; 2.32 µM in [4]; 4.07 µM in [5]; 2.85 µM in experiment [6]. For the same molecule, the TGI in [7] was determined as 5.84 µM; in experiment [8] it was 2.62 µM; in experiment [9], 4.97 µM; in [10], 3.08 µM.

Take `O=C1C=Cc2ccccc2/C1=C/c1[nH]c(=O)[nH]c1O`: the GI50 in [1] is 9.97 µM; in [2] it was 4.35 µM; in [3], 7 µM; in [4], 4.19 µM; in experiment [5] it was 20.3 µM; in [6], 3.61 µM. Moreover, the GI50 in experiment [7] was 3.49 µM; in experiment [8] it was 2.14 µM; in experiment [9] it was 2.5 µM; in experiment [10], 2.93 µM. Besides, the TGI in experiment [1] is above 100 µM; in experiment [2] it was 17.1 µM; in [3] it was above 100 µM; in experiment [4] it was above 100 µM; in experiment [5] it was above 100 µM; in experiment [6], above 100 µM. The TGI in [7] is 16.6 µM; in [8], 7.44 µM; in experiment [9], 25.6 µM; in [10], above 100 µM.

`Cn1c(=O)c2[nH]c(CS(=O)(=O)Cc3nc4c([nH]3)c(=O)n(C)c(=O)n4C)nc2n(C)c1=O`: the TGI in experiment [1], in experiment [2], in experiment [3], in experiment [4], in experiment [5] and in experiment [6] was above 100 µM each time. For the same molecule, the TGI in experiment [7], in experiment [8], in experiment [9] and in experiment [10] was above 100 µM each time.

Take `O=C(NOCC1CC1)c1ccc(F)c(F)c1Nc1ccc(I)cc1Cl`: the GI50 in experiment [1] was 1.13 µM; in [2], 0.112 µM; in experiment [3], 0.727 µM; in [4], 3.35 µM; in experiment [5], 2.85 µM; in experiment [6] it was 3.03 µM. In addition, the GI50 in experiment [7] was 1.38 µM; in experiment [8], 2.15 µM; in experiment [9] it was 3.15 µM; in [10] it was 0.0549 µM. Also, the TGI was above 39 µM in experiment [1]; 11.1 µM in experiment [2]; 13.2 µM in experiment [3]; 25.6 µM in experiment [4]; above 47.9 µM in experiment [5]; 16.5 µM in [6]. In addition, the TGI in experiment [7] was 97.3 µM; in [8] it was above 45.2 µM; in experiment [9], above 52.3 µM; in experiment [10], 0.517 µM.

Values taken from PubChem BioAssay (NCI).
